Test results taken from patent US10457691B2, “Macrocyclic kinase inhibitors and uses thereof” (Dana-Farber Cancer Institute, Inc., priority 2014, dated 2019).

Tests used:
Assay type in all cases: biochemical
[1] = molecular target: ABL (Homo sapiens, UniProt P00519); assay: Protein kinase assay ([γ-32P] ATP), ABL; conditions: read-out: Activity of the protein kinase when treated with compound I-1 (% control)
Procedure: (§1) In another set of experiments, the activities of the compounds described herein against various protein kinases were determined according to the methods reported in Hastie et al., Nature Protocols, 2006, 1, 968-971.
(§2) Enzyme dilution buffer. This buffer consisted of 50 mM Tris-HCl, pH 7.5, 0.1 mM EGTA, 1 mg ml^−1 bovine serum albumin and 0.1% (vol/vol) 2-mercaptoethanol.
(§3) 10× concentrated assay buffer. An assay buffer of 500 mM Tris-HCl, pH 7.5, 1 mM EGTA, and 100 mM magnesium acetate was used for assay of a wide variety of protein kinases. In some experiments, other cofactors were included (e.g., calcium ions and calmodulin were included for assay of calcium-calmodulindependent protein kinases).
(§4) 1 mM [γ-^32P] ATP. The specific activity of the [γ-^32P] ATP solution was 1×10^5 to 1×10^6 c.p.m. per nmol depending on what was needed to produce an optimal signal/noise ratio. […] To measure the concentration of ATP, a sample of such a stock solution was diluted to 20 μM, and the absorbance of the diluted sample was measured at 259 nm. The absorbance of a 20-μM stock solution of ATP at 259 nm was about 0.31. […] ATP to produce a radioactivity of 1×10^5 to 1×10^6 c.p.m. per nmol. […]
(§5) 13) Measure radioactivity in the samples by Cerenkov counting (e.g., without liquid scintillation fluid) in a liquid scintillation counter using a “^32P program”. […]

[2] = tested on: CK2; assay: Protein kinase assay ([γ-32P] ATP), CK2
Procedure: as §1, §2, §3, §4, §5

[3] = molecular target: CLK2 (Homo sapiens, UniProt P49760); assay: Protein kinase assay ([γ-32P] ATP), CLK2; conditions: read-out: Activity of the protein kinase when treated with compound I-1 (% control)
Procedure: as §1, §2, §3, §4, §5

[4] = molecular target: DDR2 (Homo sapiens, UniProt Q16832); assay: Protein kinase assay ([γ-32P] ATP), DDR2; conditions: read-out: Activity of the protein kinase when treated with compound I-1 (% control)
Procedure: as §1, §2, §3, §4, §5

[5] = molecular target: DYRK1A (Homo sapiens, UniProt Q13627); assay: Protein kinase assay ([γ-32P] ATP), DYRK1A; conditions: read-out: Activity of the protein kinase when treated with compound I-1 (% control)
Procedure: as §1, §2, §3, §4, §5

[6] = molecular target: EPH-A4 (Homo sapiens, UniProt P54764); assay: Protein kinase assay ([γ-32P] ATP), EPH-A4; conditions: read-out: Activity of the protein kinase when treated with compound I-1 (% control)
Sequence of EPH-A4 (P54764 20-986): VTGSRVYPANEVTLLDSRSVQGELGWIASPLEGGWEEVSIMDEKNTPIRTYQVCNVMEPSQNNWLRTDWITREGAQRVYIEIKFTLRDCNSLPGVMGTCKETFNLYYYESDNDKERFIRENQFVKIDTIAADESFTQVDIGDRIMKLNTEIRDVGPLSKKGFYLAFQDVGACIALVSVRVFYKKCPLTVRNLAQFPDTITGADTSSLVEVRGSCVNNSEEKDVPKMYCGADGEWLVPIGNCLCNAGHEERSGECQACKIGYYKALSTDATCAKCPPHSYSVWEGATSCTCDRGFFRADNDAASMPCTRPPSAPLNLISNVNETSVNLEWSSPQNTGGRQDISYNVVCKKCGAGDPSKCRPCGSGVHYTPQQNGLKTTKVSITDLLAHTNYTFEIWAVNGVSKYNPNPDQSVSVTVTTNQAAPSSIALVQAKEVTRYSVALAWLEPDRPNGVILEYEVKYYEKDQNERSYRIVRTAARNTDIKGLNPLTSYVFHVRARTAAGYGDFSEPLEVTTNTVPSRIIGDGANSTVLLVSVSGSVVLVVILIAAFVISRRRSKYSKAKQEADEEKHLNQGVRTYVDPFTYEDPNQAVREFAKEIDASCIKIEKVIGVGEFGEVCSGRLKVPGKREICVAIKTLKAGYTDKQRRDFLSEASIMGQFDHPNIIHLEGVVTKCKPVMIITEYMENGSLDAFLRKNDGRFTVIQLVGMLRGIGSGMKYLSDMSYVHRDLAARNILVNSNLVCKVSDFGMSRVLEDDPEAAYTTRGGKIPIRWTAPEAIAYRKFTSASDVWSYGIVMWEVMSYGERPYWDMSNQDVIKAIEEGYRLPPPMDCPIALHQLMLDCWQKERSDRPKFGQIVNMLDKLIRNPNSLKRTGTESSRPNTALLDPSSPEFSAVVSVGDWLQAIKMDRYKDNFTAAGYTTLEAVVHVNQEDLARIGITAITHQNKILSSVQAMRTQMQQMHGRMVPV
Procedure: as §1, §2, §3, §4, §5

[7] = molecular target: EPH-B4 (Homo sapiens, UniProt P54760); assay: Protein kinase assay ([γ-32P] ATP), EPH-B4; conditions: read-out: Activity of the protein kinase when treated with compound I-1 (% control)
Sequence of EPH-B4 (P54760 16-987): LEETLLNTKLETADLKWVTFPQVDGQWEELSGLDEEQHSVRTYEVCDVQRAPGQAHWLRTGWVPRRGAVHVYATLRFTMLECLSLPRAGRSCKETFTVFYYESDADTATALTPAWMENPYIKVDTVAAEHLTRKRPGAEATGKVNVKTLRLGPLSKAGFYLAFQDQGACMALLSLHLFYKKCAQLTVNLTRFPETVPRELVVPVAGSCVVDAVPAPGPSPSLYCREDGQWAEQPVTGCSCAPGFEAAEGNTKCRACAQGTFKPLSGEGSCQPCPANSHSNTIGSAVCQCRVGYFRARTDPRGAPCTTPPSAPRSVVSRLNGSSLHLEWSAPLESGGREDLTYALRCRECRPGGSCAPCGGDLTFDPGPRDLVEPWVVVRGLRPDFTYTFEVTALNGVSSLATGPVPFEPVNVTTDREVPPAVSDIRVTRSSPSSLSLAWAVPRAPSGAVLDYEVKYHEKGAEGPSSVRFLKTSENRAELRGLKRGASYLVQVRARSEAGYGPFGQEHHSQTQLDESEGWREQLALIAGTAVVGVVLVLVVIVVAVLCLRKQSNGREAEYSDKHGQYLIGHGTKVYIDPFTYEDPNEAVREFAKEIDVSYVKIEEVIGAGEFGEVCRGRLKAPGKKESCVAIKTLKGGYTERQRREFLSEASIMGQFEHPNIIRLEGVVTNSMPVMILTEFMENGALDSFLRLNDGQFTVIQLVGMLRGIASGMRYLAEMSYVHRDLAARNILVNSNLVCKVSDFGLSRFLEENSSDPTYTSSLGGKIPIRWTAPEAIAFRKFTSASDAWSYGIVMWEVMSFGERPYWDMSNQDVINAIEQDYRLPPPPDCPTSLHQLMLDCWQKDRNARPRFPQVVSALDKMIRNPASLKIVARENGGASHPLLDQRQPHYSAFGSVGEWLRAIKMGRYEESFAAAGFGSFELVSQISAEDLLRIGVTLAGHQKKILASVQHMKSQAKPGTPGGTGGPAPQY
Procedure: as §1, §2, §3, §4, §5

[8] = molecular target: MEKK1 (Homo sapiens, UniProt Q13233); assay: Protein kinase assay ([γ-32P] ATP), MEKK1; conditions: read-out: Activity of the protein kinase when treated with compound I-1 (% control)
Procedure: as §1, §2, §3, §4, §5

[9] = molecular target: MLK1 (Homo sapiens, UniProt P80192); assay: Protein kinase assay ([γ-32P] ATP), MLK1; conditions: read-out: Activity of the protein kinase when treated with compound I-1 (% control)
Procedure: as §1, §2, §3, §4, §5

[10] = molecular target: MSK1 (Homo sapiens, UniProt O75582); assay: Protein kinase assay ([γ-32P] ATP), MSK1; conditions: read-out: Activity of the protein kinase when treated with compound I-1 (% control)
Sequence of MSK1 (O75582 whole entry): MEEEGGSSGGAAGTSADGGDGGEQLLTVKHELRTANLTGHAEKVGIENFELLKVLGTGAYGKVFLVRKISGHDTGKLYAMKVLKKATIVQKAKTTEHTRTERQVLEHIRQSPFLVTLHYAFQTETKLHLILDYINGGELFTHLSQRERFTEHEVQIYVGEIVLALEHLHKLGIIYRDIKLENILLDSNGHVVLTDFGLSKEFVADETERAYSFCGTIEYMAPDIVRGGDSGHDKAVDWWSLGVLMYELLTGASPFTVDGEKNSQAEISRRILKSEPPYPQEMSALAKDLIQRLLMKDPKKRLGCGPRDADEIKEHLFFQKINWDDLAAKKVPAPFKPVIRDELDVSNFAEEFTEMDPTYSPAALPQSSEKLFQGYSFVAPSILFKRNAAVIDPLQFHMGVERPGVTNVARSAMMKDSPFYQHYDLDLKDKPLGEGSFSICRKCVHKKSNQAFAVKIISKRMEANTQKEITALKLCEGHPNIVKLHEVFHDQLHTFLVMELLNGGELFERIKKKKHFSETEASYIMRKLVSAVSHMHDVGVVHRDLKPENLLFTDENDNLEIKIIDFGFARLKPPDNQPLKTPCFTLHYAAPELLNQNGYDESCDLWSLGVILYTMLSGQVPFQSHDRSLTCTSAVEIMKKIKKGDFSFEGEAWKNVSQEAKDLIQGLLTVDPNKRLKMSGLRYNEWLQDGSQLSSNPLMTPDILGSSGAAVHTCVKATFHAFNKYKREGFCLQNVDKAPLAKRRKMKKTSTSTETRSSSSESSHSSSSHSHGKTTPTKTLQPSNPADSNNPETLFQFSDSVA
Procedure: as §1, §2, §3, §4, §5

[11] = molecular target: PAK2 (Homo sapiens, UniProt Q13177); assay: Protein kinase assay ([γ-32P] ATP), PAK2; conditions: read-out: Activity of the protein kinase when treated with compound I-1 (% control)
Sequence of PAK2 (Q13177 whole entry): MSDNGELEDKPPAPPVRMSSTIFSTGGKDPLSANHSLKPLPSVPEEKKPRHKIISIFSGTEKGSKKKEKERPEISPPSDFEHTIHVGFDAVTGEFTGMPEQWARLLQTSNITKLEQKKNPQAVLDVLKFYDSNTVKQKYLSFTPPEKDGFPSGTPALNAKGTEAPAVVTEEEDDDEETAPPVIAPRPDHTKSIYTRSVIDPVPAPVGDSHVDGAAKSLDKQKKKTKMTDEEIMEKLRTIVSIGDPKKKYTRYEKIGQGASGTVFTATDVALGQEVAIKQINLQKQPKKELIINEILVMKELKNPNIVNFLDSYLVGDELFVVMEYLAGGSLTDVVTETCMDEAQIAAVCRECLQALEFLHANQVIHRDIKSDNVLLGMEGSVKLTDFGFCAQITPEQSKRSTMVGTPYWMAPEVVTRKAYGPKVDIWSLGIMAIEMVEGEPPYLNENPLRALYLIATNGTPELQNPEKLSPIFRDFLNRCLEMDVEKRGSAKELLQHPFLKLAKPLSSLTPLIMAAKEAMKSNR
Procedure: as §1, §2, §3, §4, §5

[12] = molecular target: PKCa (Homo sapiens, UniProt P17252); assay: Protein kinase assay ([γ-32P] ATP), PKCa; conditions: read-out: Activity of the protein kinase when treated with compound I-1 (% control)
Procedure: as §1, §2, §3, §4, §5

[13] = molecular target: RSK1 (Homo sapiens, UniProt Q15418); assay: Protein kinase assay ([γ-32P] ATP), RSK1; conditions: read-out: Activity of the protein kinase when treated with compound I-1 (% control)
Procedure: as §1, §2, §3, §4, §5

[14] = molecular target: S6K1 (Homo sapiens, UniProt P23443); assay: Protein kinase assay ([γ-32P] ATP), S6K1; conditions: read-out: Activity of the protein kinase when treated with compound I-1 (% control)
Procedure: as §1, §2, §3, §4, §5

[15] = molecular target: TAO1 (Homo sapiens, UniProt Q7L7X3); assay: Protein kinase assay ([γ-32P] ATP), TAO1; conditions: read-out: Activity of the protein kinase when treated with compound I-1 (% control)
Sequence of TAO1 (Q7L7X3 whole entry): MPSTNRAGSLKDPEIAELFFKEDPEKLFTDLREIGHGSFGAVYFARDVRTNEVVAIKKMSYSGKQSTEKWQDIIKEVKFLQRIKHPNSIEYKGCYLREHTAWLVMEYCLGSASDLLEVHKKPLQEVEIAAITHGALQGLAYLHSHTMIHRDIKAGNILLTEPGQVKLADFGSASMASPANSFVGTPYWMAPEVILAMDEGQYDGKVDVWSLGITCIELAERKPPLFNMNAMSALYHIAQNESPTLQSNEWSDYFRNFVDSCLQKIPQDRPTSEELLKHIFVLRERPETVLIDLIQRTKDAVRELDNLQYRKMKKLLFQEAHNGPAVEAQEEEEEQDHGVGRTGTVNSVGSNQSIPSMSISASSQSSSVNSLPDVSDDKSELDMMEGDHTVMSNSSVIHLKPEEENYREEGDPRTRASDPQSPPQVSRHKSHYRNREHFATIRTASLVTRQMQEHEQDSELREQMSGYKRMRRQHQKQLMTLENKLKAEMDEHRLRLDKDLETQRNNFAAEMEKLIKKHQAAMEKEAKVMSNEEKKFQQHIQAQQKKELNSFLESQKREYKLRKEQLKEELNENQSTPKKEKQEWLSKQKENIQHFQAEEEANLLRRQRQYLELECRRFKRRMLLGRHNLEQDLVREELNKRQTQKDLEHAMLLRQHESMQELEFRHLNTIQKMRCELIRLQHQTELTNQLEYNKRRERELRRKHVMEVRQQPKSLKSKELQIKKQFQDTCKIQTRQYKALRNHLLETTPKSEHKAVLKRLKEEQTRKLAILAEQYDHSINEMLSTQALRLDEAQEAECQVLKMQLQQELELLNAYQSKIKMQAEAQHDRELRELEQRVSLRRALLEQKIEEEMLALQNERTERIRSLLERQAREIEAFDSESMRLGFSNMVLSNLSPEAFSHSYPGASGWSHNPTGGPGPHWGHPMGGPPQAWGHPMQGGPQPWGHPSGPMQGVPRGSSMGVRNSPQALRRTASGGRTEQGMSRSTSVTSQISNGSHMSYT
Procedure: as §1, §2, §3, §4, §5

[16] = molecular target: TSSK1 (Homo sapiens, UniProt Q9BXA7); assay: Protein kinase assay ([γ-32P] ATP), TSSK1; conditions: read-out: Activity of the protein kinase when treated with compound I-1 (% control)
Sequence of TSSK1 (Q9BXA7 whole entry, species assumed): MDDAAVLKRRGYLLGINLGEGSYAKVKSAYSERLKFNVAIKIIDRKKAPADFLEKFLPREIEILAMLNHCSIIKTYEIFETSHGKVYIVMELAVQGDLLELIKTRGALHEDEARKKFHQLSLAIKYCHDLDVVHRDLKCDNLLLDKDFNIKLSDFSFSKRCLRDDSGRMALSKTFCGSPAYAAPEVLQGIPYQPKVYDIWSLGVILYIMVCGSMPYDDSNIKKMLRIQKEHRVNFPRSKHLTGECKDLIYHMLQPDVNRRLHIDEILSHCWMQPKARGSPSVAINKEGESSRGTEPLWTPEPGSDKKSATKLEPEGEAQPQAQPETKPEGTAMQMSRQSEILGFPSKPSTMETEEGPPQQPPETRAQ
Procedure: as §1, §2, §3, §4, §5

[17] = molecular target: ZAP70 (Homo sapiens, UniProt P43403); assay: Protein kinase assay ([γ-32P] ATP), ZAP70; conditions: read-out: Activity of the protein kinase when treated with compound I-1 (% control)
Procedure: as §1, §2, §3, §4, §5

[18] = 0.1 μM of compound I-1, DMSO control = 100%
[19] = 1 μM of compound I-1, DMSO control = 100%

Structure (SMILES): Cc1cccc(C)c1NC(=O)N1C/C=C\COc2cccc(c2)Nc2cc1ncn2 [Compound I-1]
- remaining activity at 0.1 µM [1, 18]: 7%
- remaining activity at 1 µM [1, 19]: 2%
- Activity of the protein kinase when treated with compound I-1 (% control) [2, 18]: 97 % control
- Activity of the protein kinase when treated with compound I-1 (% control) [2, 19]: 91 % control
- remaining activity at 0.1 µM [3, 18]: 100%
- remaining activity at 1 µM [3, 19]: 90%
- remaining activity at 0.1 µM [4, 18]: 28%
- remaining activity at 1 µM [4, 19]: 3%
- remaining activity at 0.1 µM [5, 18]: 104%
- remaining activity at 1 µM [5, 19]: 86%
- remaining activity at 0.1 µM [6, 18]: 8%
- remaining activity at 1 µM [6, 19]: 3%
- remaining activity at 0.1 µM [7, 18]: 55%
- remaining activity at 1 µM [7, 19]: 4%
- remaining activity at 0.1 µM [8, 18]: 96%
- remaining activity at 1 µM [8, 19]: 95%
- remaining activity at 0.1 µM [9, 18]: 60%
- remaining activity at 1 µM [9, 19]: 17%
- remaining activity at 0.1 µM [10, 18]: 107%
- remaining activity at 1 µM [10, 19]: 81%
- remaining activity at 0.1 µM [11, 18]: 100%
- remaining activity at 1 µM [11, 19]: 77%
- remaining activity at 0.1 µM [12, 18]: 101%
- remaining activity at 1 µM [12, 19]: 91%
- remaining activity at 0.1 µM [13, 18]: 98%
- remaining activity at 1 µM [13, 19]: 99%
- remaining activity at 0.1 µM [14, 18]: 105%
- remaining activity at 1 µM [14, 19]: 83%
- remaining activity at 0.1 µM [15, 18]: 72%
- remaining activity at 1 µM [15, 19]: 34%
- remaining activity at 0.1 µM [16, 18]: 83%
- remaining activity at 1 µM [16, 19]: 85%
- remaining activity at 0.1 µM [17, 18]: 90%
- remaining activity at 1 µM [17, 19]: 98%
